From ChEMBL document CHEMBL1152121, “Improvement of water solubility of non-competitive AMPA receptor antagonists by complexation with beta-cyclodextrin” (Bioorg Med Chem, 2008)
In brackets after ≈: the same amount, converted by molar mass.

Key:
[1] = Binding affinity to beta-cyclodextrin in aqueous solution after 72 hrs by phase-solubility measurements; assay type: ADME; conditions: buffer
[2] = Aqueous solubility of the compound; assay type: physicochemical; conditions: water

| K [1] [M⁻¹] | solubility [2] [mM] | SMILES |
| --- | --- | --- |
| 15889 | 5 (≈ 1730 µg/mL) | COc1cc2c(cc1OC)[C@@H](c1ccc(Cl)cc1)N(C(C)=O)CC2 |
| 1079 | 3 (≈ 1040 µg/mL) | COc1cc2c(cc1OC)C(c1ccc(Cl)cc1)N(C(C)=O)CC2 (racemic) |
